Laboratory results as given in paper PMC5161585 (Nature, 2016).
Entries after “also recorded” stand apart in the source; their conditions may differ.

Columns and labels:
C57BL/6J mice [1] = test: Hotplate assay subcategorized into affective and reflexive responses; assay type: in vivo, mouse; conditions: for analgesia on affective versus reflexive component of pain: morphine 10 mg/kg, PZM21 20 mg/kg
mice [2] = test: Formalin injection nociception assay; assay type: in vivo, mouse; conditions: morphine 10 mg/kg, PZM21 40 mg/kg
mice [3] = test: Conditioned place preference; assay type: in vivo, mouse; conditions: morphine 10 mg/kg, PZM21 20 mg/kg, TRV130 1.2 mg/kg
κOR [4] = molecular target: T1, κOR (Homo sapiens, UniProt P41145); test: Gi/o Glosensor assay at κOR; assay type: cell-based
human μOR [5] = molecular target: T2, human μOR (Homo sapiens, UniProt P35372); test: Receptor internalization, PathHunter GPCR internalization assay in U2OS cells; assay type: cell-based
mice [6] = test: Whole-body mouse plethysmography; assay type: in vivo; conditions: equi-analgesic doses: PZM21 40 mg/kg, TRV130 1.2 mg/kg, morphine 10 mg/kg
κOR [7] = molecular target: T1, κOR; test: Radioligand binding at κOR; conditions: read-out: κOR Ki
δOR [8] = molecular target: T3, δOR (Homo sapiens, UniProt P41143); test: Radioligand binding at δOR; conditions: read-out: δOR Ki
δOR [9] = molecular target: T3, δOR; test: Gi/o Glosensor assay at δOR; assay type: cell-based
nociceptin receptor = nociceptin receptor (Homo sapiens, UniProt P41146); test: Gi/o Glosensor assay at nociceptin receptor; assay type: cell-based
320 non-olfactory GPCRs = test: PRESTO-Tango GPCRome β-arrestin recruitment screen; assay type: cell-based; conditions: 10 μM screen, hits re-tested in full dose–response
SSTR4 = SSTR4 (Homo sapiens, UniProt P31391); test: Gi/o Glosensor assay measuring SSTR4 activation; assay type: cell-based
Oprm1−/− mice = test: Hotplate assay in μOR knockout mice; assay type: in vivo, mouse; conditions: morphine 10 mg/kg, PZM21 20 mg/kg, 30 min
mice [10] = test: Accumulated faecal boli quantification; assay type: in vivo, mouse; conditions: morphine 10 mg/kg, PZM21 20 mg/kg
mice [11] = test: Open field locomotor response; assay type: in vivo, mouse; conditions: morphine 10 mg/kg, PZM21 20 mg/kg
mice [12] = test: Catalepsy bar test; assay type: in vivo, mouse; conditions: PZM21 20 mg/kg, morphine 10 mg/kg
[13] = Pharmacokinetics of PZM21, serum and brain levels; assay type: in vivo, mouse; conditions: 20 mg/kg subcutaneous, mice
[14] = Metabolism in mouse liver microsomes; assay type: in vitro ADME; conditions: over one hour, 80 μM
C57BL/6J mice [15] = test: Mouse tail-flick assay; conditions: in vivo
C57BL/6J mice [16] = test: Mouse hotplate analgesia assay; conditions: 15 min after the highest dose tested (40 mg/kg), subcutaneous
human μOR [17] = molecular target: T2, human μOR; test: BRET-based; assay type: cell-based; conditions: read-out: EC50 in CAMYEL-based Gi/o signalling assay
human μOR [18] = molecular target: T2, human μOR; test: β-arrestin-2 recruitment by BRET in HEK-293T cells; assay type: cell-based

T1 sequence (P41145 whole entry): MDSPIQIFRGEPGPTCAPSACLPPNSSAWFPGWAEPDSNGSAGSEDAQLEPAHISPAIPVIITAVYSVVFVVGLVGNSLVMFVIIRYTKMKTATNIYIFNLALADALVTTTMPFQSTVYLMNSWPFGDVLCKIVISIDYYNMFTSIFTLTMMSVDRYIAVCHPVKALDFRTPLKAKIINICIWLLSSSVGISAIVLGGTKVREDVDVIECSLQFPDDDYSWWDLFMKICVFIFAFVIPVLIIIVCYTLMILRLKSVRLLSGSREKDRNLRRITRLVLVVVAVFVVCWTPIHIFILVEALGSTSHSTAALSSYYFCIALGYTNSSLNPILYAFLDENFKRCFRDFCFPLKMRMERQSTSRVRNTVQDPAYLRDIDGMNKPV
T2 sequence (P35372 whole entry): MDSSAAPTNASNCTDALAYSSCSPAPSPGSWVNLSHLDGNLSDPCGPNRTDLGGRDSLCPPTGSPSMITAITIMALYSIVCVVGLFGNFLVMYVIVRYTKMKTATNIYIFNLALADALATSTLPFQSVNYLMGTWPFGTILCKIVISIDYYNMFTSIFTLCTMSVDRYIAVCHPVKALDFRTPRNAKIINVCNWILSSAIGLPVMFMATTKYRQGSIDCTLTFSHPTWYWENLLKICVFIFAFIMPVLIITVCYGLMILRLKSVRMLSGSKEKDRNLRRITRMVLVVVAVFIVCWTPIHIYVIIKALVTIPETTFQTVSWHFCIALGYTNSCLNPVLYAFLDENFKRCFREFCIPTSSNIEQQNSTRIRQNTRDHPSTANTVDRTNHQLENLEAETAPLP
T3 sequence (P41143 whole entry): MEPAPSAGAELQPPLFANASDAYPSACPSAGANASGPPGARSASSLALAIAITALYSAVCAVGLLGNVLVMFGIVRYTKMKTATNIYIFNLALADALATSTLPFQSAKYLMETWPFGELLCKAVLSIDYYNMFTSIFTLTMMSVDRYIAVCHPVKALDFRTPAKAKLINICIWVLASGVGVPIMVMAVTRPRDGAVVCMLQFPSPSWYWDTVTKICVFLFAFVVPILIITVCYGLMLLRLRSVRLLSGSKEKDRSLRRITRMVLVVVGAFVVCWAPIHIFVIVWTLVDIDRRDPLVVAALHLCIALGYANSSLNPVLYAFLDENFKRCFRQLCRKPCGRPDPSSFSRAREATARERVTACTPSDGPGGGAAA
Sequence of nociceptin receptor (P41146 whole entry, species assumed): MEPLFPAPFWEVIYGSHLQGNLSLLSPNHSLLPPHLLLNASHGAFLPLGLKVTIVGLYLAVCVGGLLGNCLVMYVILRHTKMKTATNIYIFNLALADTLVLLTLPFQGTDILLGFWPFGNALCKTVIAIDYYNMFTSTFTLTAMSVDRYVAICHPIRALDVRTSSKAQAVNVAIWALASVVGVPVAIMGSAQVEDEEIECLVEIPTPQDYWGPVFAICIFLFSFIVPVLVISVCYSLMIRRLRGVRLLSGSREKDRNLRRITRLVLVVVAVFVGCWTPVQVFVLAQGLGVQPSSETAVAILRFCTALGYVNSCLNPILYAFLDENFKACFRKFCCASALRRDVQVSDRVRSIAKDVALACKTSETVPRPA
Sequence of SSTR4 (P31391 whole entry, species assumed): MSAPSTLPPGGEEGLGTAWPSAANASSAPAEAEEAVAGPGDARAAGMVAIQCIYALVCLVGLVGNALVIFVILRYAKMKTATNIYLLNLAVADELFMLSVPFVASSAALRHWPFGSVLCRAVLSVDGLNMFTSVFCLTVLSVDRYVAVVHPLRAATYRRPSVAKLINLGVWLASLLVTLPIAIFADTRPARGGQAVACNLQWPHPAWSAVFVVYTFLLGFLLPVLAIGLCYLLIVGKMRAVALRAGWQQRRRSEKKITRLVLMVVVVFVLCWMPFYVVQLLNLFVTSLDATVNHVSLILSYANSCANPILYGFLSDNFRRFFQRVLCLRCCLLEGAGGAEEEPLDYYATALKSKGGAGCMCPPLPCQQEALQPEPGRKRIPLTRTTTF

SMILES: CN1CC[C@]23c4c5ccc(O)c4O[C@H]2[C@@H](O)C=C[C@H]3[C@H]1C5 [morphine, reference compound]
- analgesia on affective versus reflexive component of pain (C57BL/6J mice [1]): induces changes in both behaviours
- analgesia in formalin injection nociception assay (mice [2]): sustained analgesia
- conditioned place preference (mice [3]): Place preference is induced

SMILES: COc1ccsc1CNCC[C@@]1(c2ccccn2)CCOC2(CCCC2)C1 [TRV130]
- κOR agonist activity (in words) (κOR [4]): potent agonists of the κOR
- μOR internalization (human μOR [5]): much decreased receptor internalization versus DAMGO and even morphine
- effect on respiration frequency (mice [6]): significantly depresses respiration at 15 min
- conditioned place preference (mice [3]): not significant relative to vehicle

SMILES: C[C@@H](Cc1ccsc1)NC(=O)NC[C@H](Cc1ccc(O)cc1)N(C)C [PZM21]
- Ki (κOR [7]): 18 nM
- Ki (δOR [8]): 506 nM
- δOR Gi/o (Glosensor) Emax (δOR [9]): 78%
- EC50 (δOR [9]; read-out: δOR Gi/o (Glosensor) EC50): 1900 nM
- κOR agonist activity (in words) (κOR [4]): no detectable κOR or nociceptin receptor agonist activity
- nociceptin receptor agonist activity (in words) (nociceptin receptor): no detectable κOR or nociceptin receptor agonist activity
- agonism at other GPCRs (320 non-olfactory GPCRs): no potent activity was confirmed with a full dose–response experiment
- SSTR4 activation, cAMP inhibition (SSTR4): does not show a dose-dependent change in cAMP inhibition
- duration of analgesia (C57BL/6J mice [1]; hotplate): up to 180 min
- analgesia on affective versus reflexive component of pain (C57BL/6J mice [1]): solely confers analgesia to the affective component of pain; also recorded: only modulates the attending (affective) component
- analgesia in formalin injection nociception assay (mice [2]): active in a formalin injection nociception assay
- analgesic response in hotplate assay in μOR knockout mice (Oprm1−/− mice): completely ablates the observed analgesic response
- constipating effect (accumulated faecal boli) (mice [10]): constipating effect is substantially less than morphine
- effect on respiration frequency (mice [6]): almost undistinguishable from vehicle
- effect on locomotion in open-field assay (mice [11]): no apparent effect on locomotion versus vehicle
- conditioned place preference (mice [3]): does not induce a conditioned place preference response
- cataleptic effect (mice [12]): minimal cataleptic effect compared to morphine
- peak level in brain tissue [13]: 197 ng per g
- concomitant serum concentration ([13]; at brain peak): 1,253 ng/ml
- metabolism by mouse liver microsomes [14]: 8%
- analgesic effect in tail-flick assay (C57BL/6J mice [15]): no analgesic effect
- per cent maximal possible effect (% MPE), hotplate (C57BL/6J mice [16]): 87%

SMILES: CN(C)[C@H](CNC(=O)NCCc1ccccc1)Cc1ccc(O)cc1 [PZM22]
- EC50 (human μOR [17]): 1.8 nM

SMILES: COC(=O)[C@@H]1C[C@H](OC(=O)c2ccccc2)C(=O)[C@H]2[C@@]1(C)CC[C@H]1C(=O)O[C@H](c3ccoc3)C[C@]21C [Herkinorin, herkinorin]
- κOR agonist activity (in words) (κOR [4]): potent agonists of the κOR
- arrestin recruitment in BRET assay in the absence of GRK2 overexpression (human μOR [18]): robustly recruits arrestin
